Data from patent publication US11492335B2, “Aryl or heteroaryl triazolone derivatives or salts thereof, or pharmaceutical compositions comprising the same” (YUHAN CORPORATION, priority 2018, dated 2022).
Where a name gives a salt, the structure may show the parent alone. Read-outs that look alike come from different tables or passages of the source.

Key:
Assay type in all cases: biochemical
[1] = biological target: T1, recombinant human VAP-1 (Homo sapiens, UniProt Q16853); experiment: Activity on recombinant human VAP-1, Amplex Red HRP-coupled hydrogen peroxide assay, benzylamine substrate; details: recombinant human VAP-1, benzylamine substrate, read-out: Inhibitory Activity (IC50, nM) human VAP-1
T1 construct: purchased R&D systems
T1 sequence (Q16853 1-763): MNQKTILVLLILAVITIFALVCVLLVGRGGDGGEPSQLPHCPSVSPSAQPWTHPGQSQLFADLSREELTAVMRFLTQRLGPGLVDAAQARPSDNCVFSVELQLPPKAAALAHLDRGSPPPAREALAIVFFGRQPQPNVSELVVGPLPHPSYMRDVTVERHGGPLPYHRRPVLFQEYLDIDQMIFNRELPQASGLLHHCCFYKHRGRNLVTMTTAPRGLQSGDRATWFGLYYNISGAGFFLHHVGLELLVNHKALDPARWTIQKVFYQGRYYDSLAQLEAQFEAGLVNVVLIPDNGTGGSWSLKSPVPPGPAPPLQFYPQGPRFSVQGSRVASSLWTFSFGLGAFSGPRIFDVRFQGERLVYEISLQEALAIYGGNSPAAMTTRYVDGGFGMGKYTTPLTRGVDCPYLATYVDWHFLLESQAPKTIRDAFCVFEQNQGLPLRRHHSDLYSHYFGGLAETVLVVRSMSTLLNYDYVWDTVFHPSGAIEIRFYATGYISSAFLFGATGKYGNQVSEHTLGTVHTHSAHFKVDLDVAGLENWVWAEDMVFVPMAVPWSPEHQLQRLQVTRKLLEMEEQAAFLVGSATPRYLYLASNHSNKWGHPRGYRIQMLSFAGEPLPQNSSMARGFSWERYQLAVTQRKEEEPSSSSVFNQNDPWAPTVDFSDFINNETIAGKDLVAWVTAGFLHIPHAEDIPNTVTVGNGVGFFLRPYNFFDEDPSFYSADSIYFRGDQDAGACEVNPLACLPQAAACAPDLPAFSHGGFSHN
Description: (§1) The compounds according to the present technology were evaluated in terms of activity on recombinant human VAP-1 (R&D systems) by measuring the level of hydrogen peroxide in horseradish peroxidase (HRP)-coupled reaction using Amplex Red Hydrogen Peroxide Assay Kit (Molecular Probes, Invitrogen, USA). The experiment was carried out at room temperature using benzylamine as a substrate. In the HRP-coupled reaction, hydrogen peroxide oxidation of 10-acetyl-3,7-dihydroxyphenoxazine (Amplex Red reagent) produces resorufin, which is a highly fluorescent compound. Briefly, the test compound was dissolved in dimethyl sulfoxide (DMSO) at a concentration of 20 mM. The dose-response assessment was made by 1:3 serial dilution in DMSO, thereby creating an 8 point curve. The concentration of the upper part was controlled according to the efficacy of the compounds, followed by dilution with a reaction buffer solution to obtain a final DMSO concentration less than 1%. To each well of a 96 black well plate, human VAP-1 purified in 50 mM sodium phosphate buffer solution (pH7.4) was added. The test compounds dissolved in DMSO were incubated with the human VAP-1 enzymes at 37° C. for 30 minutes. After 30-minute incubation, each well is added with a reaction mixture containing 200 uM Amplex Red reagent prepared from 50 mM sodium phosphate buffer solution (pH 7.4), 1 mM benzylamine, and 1 U/mL HRP. Fluorescence intensity was measured at several time points during 1-2 hours using a microplate reader (Flexstation3, Molecular Devices) under the wavelength condition exciting at 544 nm and reading the emission at 590 nm. The inhibitory effect of the compounds was measured as a decrease (%) in the signal rate as compared to the control group without any inhibitor (only diluted DMSO). Data was fixed to a logistic model with four variables and IC50 value was calculated using GraphPad Prism program.

[2] = biological target: T2, recombinant human MAO-A (monoamine oxidase-A) (Homo sapiens, UniProt P21397); experiment: Activity on recombinant human MAO-A, Amplex Red method, 0.5 mM tyramine substrate; details: read-out: Inhibitory Activity (IC50, nM) MAO-A
T2 construct: purchased Sigma-Aldrich
T2 sequence (P21397 1-527): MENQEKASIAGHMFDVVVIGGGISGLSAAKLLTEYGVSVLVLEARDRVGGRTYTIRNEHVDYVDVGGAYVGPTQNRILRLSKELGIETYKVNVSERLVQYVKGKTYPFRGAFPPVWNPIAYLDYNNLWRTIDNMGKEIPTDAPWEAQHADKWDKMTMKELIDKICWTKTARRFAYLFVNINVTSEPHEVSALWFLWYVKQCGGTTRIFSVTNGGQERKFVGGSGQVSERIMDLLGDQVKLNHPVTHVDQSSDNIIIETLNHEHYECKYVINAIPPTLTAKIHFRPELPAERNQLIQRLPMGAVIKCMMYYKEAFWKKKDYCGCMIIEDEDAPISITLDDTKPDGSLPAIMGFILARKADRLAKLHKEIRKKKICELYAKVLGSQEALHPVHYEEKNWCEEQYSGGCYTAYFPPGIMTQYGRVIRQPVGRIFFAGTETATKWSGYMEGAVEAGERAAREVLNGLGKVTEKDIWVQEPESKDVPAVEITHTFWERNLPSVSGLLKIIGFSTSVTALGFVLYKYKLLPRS
Description: as §1
(§2) In addition, the compounds according to the present technology were evaluated in terms of activity on a recombinant human MAO-A (monoamine oxidase-A, Sigma-Aldrich) and a recombinant human MAO-B (monoamine oxidase-B, Sigma-Aldrich) by using as substrates, 0.5 mM tyramine and 1 mM benzylamine, respectively, with a method similar to the activity evaluation method for recombinant human VAP-1. The compounds according to the present technology were also evaluated in terms of activity on a recombinant human DAO (diamine oxidase, R&D systems) by using as a substrate 1 mM putrescine with a method similar to the activity evaluation method for recombinant human VAP-1.

[3] = biological target: T3, recombinant human MAO-B (monoamine oxidase-B) (Homo sapiens, UniProt P27338); experiment: Activity on recombinant human MAO-B, Amplex Red method, 1 mM benzylamine substrate; details: for IC50: read-out: Inhibitory Activity (IC50, nM) MAO-B
T3 construct: purchased Sigma-Aldrich
T3 sequence (P27338 1-520): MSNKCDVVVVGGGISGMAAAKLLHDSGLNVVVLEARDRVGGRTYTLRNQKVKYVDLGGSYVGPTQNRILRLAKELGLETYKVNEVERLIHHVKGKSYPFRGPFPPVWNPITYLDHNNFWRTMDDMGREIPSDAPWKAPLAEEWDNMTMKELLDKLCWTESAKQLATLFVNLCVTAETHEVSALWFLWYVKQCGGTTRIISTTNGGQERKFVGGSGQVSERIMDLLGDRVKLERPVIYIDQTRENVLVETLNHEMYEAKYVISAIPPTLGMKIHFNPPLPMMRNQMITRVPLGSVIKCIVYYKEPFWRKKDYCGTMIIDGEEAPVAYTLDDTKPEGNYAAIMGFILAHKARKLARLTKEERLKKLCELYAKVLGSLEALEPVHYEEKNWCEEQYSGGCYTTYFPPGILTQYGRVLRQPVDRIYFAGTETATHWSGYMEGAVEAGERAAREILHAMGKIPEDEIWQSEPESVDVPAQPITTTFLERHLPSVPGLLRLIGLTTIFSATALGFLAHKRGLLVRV
Description: as §1, §2

[4] = biological target: T4, recombinant human DAO (diamine oxidase) (Homo sapiens, UniProt P19801); experiment: Activity on recombinant human DAO, Amplex Red method, 1 mM putrescine substrate; details: recombinant human DAO; for IC50: read-out: Inhibitory Activity (IC50, nM) DAO
T4 construct: purchased R&D systems
T4 sequence (P19801 20-751): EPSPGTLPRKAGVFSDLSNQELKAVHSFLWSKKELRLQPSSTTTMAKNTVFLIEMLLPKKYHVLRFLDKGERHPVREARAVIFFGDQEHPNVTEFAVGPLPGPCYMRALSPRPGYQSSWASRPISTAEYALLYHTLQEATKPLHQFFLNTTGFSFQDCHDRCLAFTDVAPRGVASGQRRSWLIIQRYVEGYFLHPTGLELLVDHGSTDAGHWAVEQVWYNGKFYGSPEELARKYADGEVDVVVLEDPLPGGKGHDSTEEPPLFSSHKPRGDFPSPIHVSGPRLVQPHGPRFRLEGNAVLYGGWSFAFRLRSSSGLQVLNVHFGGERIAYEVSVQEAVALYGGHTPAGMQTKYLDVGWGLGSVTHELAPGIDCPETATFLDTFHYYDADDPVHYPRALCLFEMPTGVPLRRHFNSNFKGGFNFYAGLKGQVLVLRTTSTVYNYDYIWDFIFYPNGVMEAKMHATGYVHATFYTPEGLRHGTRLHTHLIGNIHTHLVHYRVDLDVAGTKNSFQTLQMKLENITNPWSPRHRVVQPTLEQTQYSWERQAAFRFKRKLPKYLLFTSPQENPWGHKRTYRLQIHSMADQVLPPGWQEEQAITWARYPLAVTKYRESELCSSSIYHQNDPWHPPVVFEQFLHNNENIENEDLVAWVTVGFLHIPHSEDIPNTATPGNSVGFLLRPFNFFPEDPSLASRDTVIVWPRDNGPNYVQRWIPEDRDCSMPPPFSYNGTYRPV
Description: as §1, §2

[5] = 1 mM putrescine, * = between 10 and 100 nM, ** = between 300 and 1000 nM

IC50 [1] [nM] | IC50 ([2]; 0.5 mM tyramine substrate) [nM] | IC50 ([3]; 1 mM benzylamine substrate) [nM] | IC50 ([4]; 1 mM putrescine substrate) [nM] | IC50 ([1]; 30 min preincubation at 37° C.) [nM] | IC50 ([2]; 0.5 mM tyramine) [nM] | IC50 ([3]; 1 mM benzylamine) [nM] | IC50 [4, 5] [nM] | Inhibitory Activity (IC50, nM) MAO-B ([3]; 1 mM benzylamine) | Inhibitory Activity (IC50, nM) DAO [4, 5] | Structure (SMILES)
6.5 | 6240 | 3140 | 2 | – | – | – | – | – | – | Cc1cc(-n2cnn(C/C(=C/F)CN)c2=O)ncc1-c1ccc2sc(N)nc2c1 [Example 161, 4-[5-(2-amino-1,3-benzothiazol-5-yl)-4-methylpyridin-2-yl]-2-[(2E)-2-(aminomethyl)-3-fluoroprop-2-en-1-yl]-2,4-dihydro-3H-1,2,4-triazol-3-one hydrochloride]
– | – | – | – | 0.7 | 84000 | 1100 | 240 | – | – | Cc1cc(-c2ccc(-c3cnon3)cc2)cnc1-n1cnn(C/C(=C/F)CN)c1=O [Example 138, 2-[(2E)-2-(aminomethyl)-3-fluoroprop-2-en-1-yl]-4-{3-methyl-5-[4-(1,2,5-oxadiazol-3-yl)phenyl]pyridin-2-yl}-2,4-dihydro-3H-1,2,4-triazol-3-one hydrochloride]
1.5 | > 100000 | > 10000 | 21 | – | – | – | – | – | – | NC/C(=C\F)Cn1ncn(-c2cccc(/C=C/c3cnc4[nH]c(=O)oc4c3)n2)c1=O [Example 242, 6-[(E)-2-[6-[1-[(E)-2-(aminomethyl)-3-fluoro-allyl]-5-oxo-1,2,4-triazol-4-yl]-2-pyridyl]vinyl]-3H-oxazolo[4,5-b]pyridin-2-one hydrochloride]
– | – | – | – | 1.4 | > 100000 | > 10000 | 110 | – | – | CC(=O)Nc1ccc(-c2cc(C)c(-n3cnn(C/C(=C/F)CN)c3=O)cn2)cc1 [Example 120, N-[4-(5-{1-[(2E)-2-(aminomethyl)-3-fluoroprop-2-en-1-yl]-5-oxo-1,5-dihydro-4H-1,2,4-triazol-4-yl}-4-methylpyridin-2-yl)phenyl]acetamide]

The remaining lines, values behind:

Structure (SMILES) | IC50 [1] [nM] | IC50 ([2]; 0.5 mM tyramine substrate) [nM] | IC50 ([3]; 1 mM benzylamine substrate) [nM] | IC50 ([4]; 1 mM putrescine substrate) [nM] | IC50 ([1]; 30 min preincubation at 37° C.) [nM] | IC50 ([2]; 0.5 mM tyramine) [nM] | IC50 ([3]; 1 mM benzylamine) [nM] | IC50 [4, 5] [nM] | Inhibitory Activity (IC50, nM) MAO-B ([3]; 1 mM benzylamine) | Inhibitory Activity (IC50, nM) DAO [4, 5]
CS(=O)(=O)c1ccc(-c2cccc(-n3cnn(C/C(=C/F)CN)c3=O)c2)cc1 [Example 54, 2-[(2E)-2-(aminomethyl)-3-fluoroprop-2-en-1-yl]-4-[4′-(methylsulfonyl)biphenyl-3-yl]-2,4-dihydro-3H-1,2,4-triazol-3-one hydrochloride] | – | – | – | – | 0.4 | > 100000 | > 10000 | < 100 | – | –
NC/C(=C\F)Cn1ncn(-c2cccc(-c3c[nH]c4ccccc34)c2)c1=O [Example 100, 2-[(2E)-2-(aminomethyl)-3-fluoroprop-2-en-1-yl]-4-[3-(1H-indol-3-yl)phenyl]-2,4-dihydro-3H-1,2,4-triazol-3-one hydrochloride] | – | – | – | – | 0.92 | 39300 | 162 | 27 | – | –
NC/C(=C\F)Cn1ncn(-c2cccc(-c3ccc(Cl)nc3)c2)c1=O [Example 85, 2-[(2E)-2-(aminomethyl)-3-fluoroprop-2-en-1-yl]-4-[3-(6-chloropyridin-3-yl)phenyl]-2,4-dihydro-3H-1,2,4-triazol-3-one hydrochloride] | – | – | – | – | 0.62 | > 100000 | 1800 | < 10 | – | –
Cc1c(-c2ccc3c(c2)OCO3)cccc1-n1cnn(C/C(=C/F)CN)c1=O [Example 111, 2-[(2E)-2-(aminomethyl)-3-fluoroprop-2-en-1-yl]-4-[3-(1,3-benzodioxol-5-yl)-2-methylphenyl]-2,4-dihydro-3H-1,2,4-triazol-3-one] | – | – | – | – | 2.8 | – | – | – | no inhibitory | no inhibitory
NC/C(=C/F)Cn1ncn(-c2cc(F)c(Br)c(F)c2)c1=O [Example 19, 2-[(2Z)-2-(aminomethyl)-3-fluoroprop-2-en-1-yl]-4-(4-bromo-3,5-difluorophenyl)-2,4-dihydro-3H-1,2,4-triazol-3-one] | – | – | – | – | 3.3 | – | 4.4 | 13 | – | –
